“And” between values parts separate entries of the source, which are not always exact repeats. Identical values can stand only once. Counter-ions that a name gives are not always drawn. Like-named read-outs stand apart in the source and are kept apart here.
What was measured:
[1] = Overnight / elevated RH stress of the crystalline salts; assay type: physicochemical; details: overnight / elevated relative humidity stress
[2] = Systemic exposure and pharmacokinetics after single oral gavage dose of 200 mg/kg in fasted male SD rats; assay type: in vivo, Sprague Dawley (SD) rats; details: for Fold difference in plasma concentration compared to micronized free-base form: 30 hours post-dose; for Fold difference in plasma concentration compared to micronized free-base form / Increase of systemic drug exposure in AUC0-t compared with micro MBX-2982 (free base): male SD rats; for Increase of systemic drug exposure in AUC0-t compared with micro MBX-2982 (free base): equivalent amounts
Method: Two studies were conducted in order to compare the systemic exposure and pharmacokinetics (PK) of microcrystalline MBX-2982 and salt forms of MBX-2982 in fasted male Sprague Dawley (SD) rats following single oral gavage (PO) doses of 200 mg/kg. Four salt foms of MBX-2982 were investigate in the studies. The tested salts were HCl Form I, HCl salt Form II, mesylate salt and the tosylate salt.
Preparation of samples was performed by solvent precipitation of plasma proteins in a 1 mL/well 96-well plate. Standards were prepared by spiking 10 μL of blank plasma with 10 μL of standard solution (acetonitrile containing MBX-2982 at 0.01, 0.02, 0.05, 0.1, 0.2, 0.5, 1, 2, 5, 10, 20, 50 and 100 μg/mL) and 300 μL of 0.1% formic acid in acetonitrile containing 0.2 μg/mL internal standard. Plasma samples were prepared by adding 10 μL of plasma sample, 10 μL of acetonitrile, and 300 μL of 0.2 μg/mL internal standard in 0.1% formic acid in acetonitrile. After addition of the organic solvents, all samples were vortexed briefly and centrifuged at 3600 rpm for 10 minutes. Some of the samples were diluted 1.3 to 2-fold with blank plasma. An aliquot of the supernatant (25 μL) was transfer to a 1 mL/well 96-well plate and mixed with 200 μL water/ACN (50/50, v/v) and injected into the HPLC.
The suspensions for microcrystalline MBX-2982 (free base) and salt forms of MBX-2982 were prepared in 1% carboxymethylcellulose and 2% tween 80 in water (w/w/v).
Five groups of animals were given microcrystalline and salt forms suspension doses of MBX-2982 orally at 200 mg/kg, respectively. Food was withheld the night before dose and returned nine hours after dosing. Blood samples were collected at 0.25, 0.5, 1, 2, 4, 6, 9, 24, 30 and 48 h post dose. MBX-2982 plasma concentration from these samples was analyzed by a non-validated high performance liquid chromatography in conjunction with mass spectrometry (LC-MS/MS) method.
Plasma concentration-time data for individual animals were analyzed using WinNonlin software (Professional, version 5.0.1; Pharsight Corp.). A non-compartmental model (model 200) was used. Peak area ratios of MBX-2982 to internal standard and concentration were fitted to a quadratic equation (Calibration Curve) with 1/x weighting using a quadratic regression program in Analyst version 1.4.2 (Applied Biosystem Inc). The equations were then used to interpolate the concentrations of MBX-2982 in samples from peak area to internal standard ratio.
The following pharmacokinetic parameters were calculated: • 1) Cmax: Maximum (peak) plasma concentration • 2) Tmax: Time at which Cmax occurred • 3) t1/2: Terminal phase half-life • 4) AUC0-t: Area under the concentration-time curve from time 0 to last measurable concentration • 5) AUC0-inf: Area under the concentration-time curve from time 0 extrapolated to infinity

[3] = PO 200 mg/kg, listed as HCl form II, hydrochloride
[4] = fasted male SD rats, single PO dose 200 mg/kg, mean ± SD, hydrochloride
[5] = 0.5 h post dose, fasted male SD rats, PO 200 mg/kg, mean ± SD
[6] = 1 h post dose, fasted male SD rats, PO 200 mg/kg, mean ± SD
[7] = 2 h post dose, fasted male SD rats, PO 200 mg/kg, mean ± SD
[8] = 24 h post dose, fasted male SD rats, PO 200 mg/kg, mean ± SD
[9] = 30 h post dose, fasted male SD rats, PO 200 mg/kg, mean ± SD
[10] = 48 h post dose, fasted male SD rats, PO 200 mg/kg, mean ± SD
[11] = fasted male SD rats, single PO dose 200 mg/kg, mean ± SD

With CCc1cnc(N2CCC(c3nc(COc4ccc(-n5cnnn5)cc4)cs3)CC2)nc1 [HBr salt, 5-ethyl-2-{4-[4-(4-tetrazol-1-yl-phenoxymethyl)-thiazol-2-yl]-piperidin-1-yl}-pyrimidine] the “Appearance of the material after RH stress” value (shortened to “Appearance of the material”) [1] was “remained a free flowing powder”.

In the case of CCc1cnc(N2CCC(c3nc(COc4ccc(-n5cnnn5)cc4)cs3)CC2)nc1.Cl [HCl Salt Form II, 5-ethyl-2-{4-[4-(4-tetrazol-1-yl-phenoxymethyl)-thiazol-2-yl]-piperidin-1-yl}-pyrimidine hydrochloride], the “Mean plasma concentration of MBX-2982” value ([2]; 0.5 h post dose, fasted male SD rats, PO 200 mg/kg, mean ± SD, hydrochloride) is reported as 8.06 ± 1.61 µg/mL, the “Mean plasma concentration of MBX-2982” value ([2]; 1 h post dose, fasted male SD rats, PO 200 mg/kg, mean ± SD, hydrochloride) is reported as 16.3 ± 2.77 µg/mL and the “Mean plasma concentration of MBX-2982” value ([2]; 2 h post dose, fasted male SD rats, PO 200 mg/kg, mean ± SD, hydrochloride) is reported as 23.7 ± 4.22 µg/mL. For the same compound, the “Mean plasma concentration of MBX-2982” value ([2]; 4 h post dose, fasted male SD rats, PO 200 mg/kg, mean ± SD, hydrochloride) was 29.2 ± 3.71 µg/mL, the “Mean plasma concentration of MBX-2982” value ([2]; 6 h post dose, fasted male SD rats, PO 200 mg/kg, mean ± SD, hydrochloride) was 29.1 ± 8.13 µg/mL and the “Mean plasma concentration of MBX-2982” value ([2]; 9 h post dose, fasted male SD rats, PO 200 mg/kg, mean ± SD, hydrochloride) was 23.2 ± 5.70 µg/mL. For the same compound, the “Mean plasma concentration of MBX-2982” value ([2]; 24 h post dose, fasted male SD rats, PO 200 mg/kg, mean ± SD, hydrochloride) was 12.02 ± 9.33 µg/mL, the “Mean plasma concentration of MBX-2982” value ([2]; 24 h post dose, fasted male SD rats, PO 200 mg/kg, mean ± SD, listed as HCl form II, hydrochloride) was 12.02 µg/mL and the “Fold difference in plasma concentration compared to micronized free-base form” value [2, 3] was 186 fold. The “Mean plasma concentration of MBX-2982” value ([2]; 30 h post dose, fasted male SD rats, PO 200 mg/kg, mean ± SD, hydrochloride) was 14.9 ± 13.2 µg/mL, the “Mean plasma concentration of MBX-2982” value ([2]; 30 h post dose, fasted male SD rats, PO 200 mg/kg, mean ± SD, listed as HCl form II, hydrochloride) was 14.9 µg/mL and the “Mean plasma concentration of MBX-2982” value ([2]; 48 h post dose, fasted male SD rats, PO 200 mg/kg, mean ± SD, hydrochloride) was 0.0325 µg/mL. For the same compound, the AUC0-24 [2, 4] was 482 ± 69.4 µg·h/mL, the AUC0-inf [2, 4] was 469 µg·h/mL and the AUC(0-t) [2, 4] was 679 ± 208 µg·h/mL. The Cmax [2, 4] was 31.8 ± 5.05 µg/mL, the Tmax [2, 4] was 11.5 ± 12.4 h and the t1/2 [2, 4] was 2.09 h. For the same compound, the “Increase of systemic drug exposure in AUC0-t compared with micro MBX-2982 (free base)” value [2, 3] was 2.9 fold.

With CCc1cnc(N2CCC(c3nc(COc4ccc(-n5cnnn5)cc4)cs3)CC2)nc1 [MBX-2982, 5-ethyl-2-{4-[4-(4-tetrazol-1-yl-phenoxymethyl)-thiazol-2-yl]-piperidin-1-yl}-pyrimidine] the “Mean plasma concentration of MBX-2982” value [2, 5] was 3.89 ± 0.95 µg/mL, the “Mean plasma concentration of MBX-2982” value [2, 6] was 6.70 ± 1.27 µg/mL and the “Mean plasma concentration of MBX-2982” value [2, 7] was 11.6 ± 1.61 µg/mL. For the same compound, the “Mean plasma concentration of MBX-2982” value [2, 8] was 0.26 µg/mL and 0.26 ± 0.28 µg/mL, the “Mean plasma concentration of MBX-2982” value [2, 9] was 0.08 µg/mL and 0.08 ± 0.06 µg/mL and the “Mean plasma concentration of MBX-2982” value [2, 10] was 0.16 ± 0.30 µg/mL. For the same compound, the concentration at 4 h ([2]; male, Sprague-Dawley, rat, plasma, po, 4 h post dose, fasted male SD rats, PO 200 mg/kg, mean ± SD, read-out: Mean plasma concentration of MBX-2982) was 15.8 ± 3.74 µg/mL, the concentration at 6 h ([2]; male, Sprague-Dawley, rat, plasma, po, 6 h post dose, fasted male SD rats, PO 200 mg/kg, mean ± SD, read-out: Mean plasma concentration of MBX-2982) was 15.9 ± 4.94 µg/mL and the concentration at 9 h ([2]; male, Sprague-Dawley, rat, plasma, po, 9 h post dose, fasted male SD rats, PO 200 mg/kg, mean ± SD, read-out: Mean plasma concentration of MBX-2982) was 15 ± 5.9 µg/mL. The half-life ([2]; male, Sprague-Dawley, rat, plasma, po, fasted male SD rats, single PO dose 200 mg/kg, mean ± SD) was 3.53 ± 0.7 h, the AUC(0-t) ([2]; male, Sprague-Dawley, rat, plasma, po, fasted male SD rats, single PO dose 200 mg/kg, mean ± SD, read-out: AUC0-24) was 233 ± 64.8 µg·h/mL and the AUC(0-t) ([2]; male, Sprague-Dawley, rat, plasma, po, fasted male SD rats, single PO dose 200 mg/kg, mean ± SD, read-out: AUC0-t) was 236 ± 64.6 µg·h/mL. It also gave a Cmax ([2]; male, Sprague-Dawley, rat, plasma, po, fasted male SD rats, single PO dose 200 mg/kg, mean ± SD, read-out: Cmax) of 17.4 ± 4.19 µg/mL and a Tmax ([2]; male, Sprague-Dawley, rat, plasma, po, fasted male SD rats, single PO dose 200 mg/kg, mean ± SD, read-out: Tmax) of 5.88 ± 1.55 h.

With CCc1cnc(N2CCC(c3nc(COc4ccc(-n5cnnn5)cc4)cs3)CC2)nc1 [Mesylate Salt, 5-ethyl-2-{4-[4-(4-tetrazol-1-yl-phenoxymethyl)-thiazol-2-yl]-piperidin-1-yl}-pyrimidine] the “Appearance of the material” value [1] was “remained a free flowing powder”, the “Mean plasma concentration of MBX-2982” value [2, 5] was 8.52 ± 0.975 µg/mL and the “Mean plasma concentration of MBX-2982” value [2, 6] was 12.2 ± 0.839 µg/mL. For the same compound, the “Mean plasma concentration of MBX-2982” value [2, 7] was 18.8 ± 0.904 µg/mL, the “Mean plasma concentration of MBX-2982” value ([2]; 4 h post dose, fasted male SD rats, PO 200 mg/kg, mean ± SD) was 26.7 ± 4.39 µg/mL and the “Mean plasma concentration of MBX-2982” value ([2]; 6 h post dose, fasted male SD rats, PO 200 mg/kg, mean ± SD) was 21.8 ± 6.48 µg/mL. For the same compound, the “Mean plasma concentration of MBX-2982” value ([2]; 9 h post dose, fasted male SD rats, PO 200 mg/kg, mean ± SD) was 18.0 ± 5.18 µg/mL, the “Mean plasma concentration of MBX-2982” value [2, 8] was 0.476 ± 0.344 µg/mL and the “Mean plasma concentration of MBX-2982” value ([2]; 24 h post dose, fasted male SD rats, PO 200 mg/kg, mean ± SD, listed as mesylate) was 0.476 µg/mL. The “Fold difference in plasma concentration compared to micronized free-base form” value ([2]; PO 200 mg/kg) was 7 fold, the “Mean plasma concentration of MBX-2982” value [2, 9] was 0.574 ± 0.641 µg/mL and the “Mean plasma concentration of MBX-2982” value ([2]; 30 h post dose, fasted male SD rats, PO 200 mg/kg, mean ± SD, listed as mesylate) was 0.574 µg/mL. The “Mean plasma concentration of MBX-2982” value [2, 10] was 0.082 ± 0.082 µg/mL, the AUC0-24 [2, 11] was 314 ± 65.7 µg·h/mL and the AUC0-inf [2, 11] was 323 ± 62.0 µg·h/mL. For the same compound, the AUC(0-t) [2, 11] was 322 ± 63.6 µg·h/mL, the Cmax [2, 11] was 26.7 ± 4.46 µg/mL and the Tmax [2, 11] was 4.50 ± 1.00 h. For the same compound, the t1/2 [2, 11] was 4.11 ± 1.29 h and the “Increase of systemic drug exposure in AUC0-t compared with micro MBX-2982 (free base)” value ([2]; PO 200 mg/kg) was 1.4 fold.

For CCc1cnc(N2CCC(c3nc(COc4ccc(-n5cnnn5)cc4)cs3)CC2)nc1 [besylate salt, 5-ethyl-2-{4-[4-(4-tetrazol-1-yl-phenoxymethyl)-thiazol-2-yl]-piperidin-1-yl}-pyrimidine], the “Appearance of the material” value [1] was “remained a free-flowing powder”.

In the case of CCc1cnc(N2CCC(c3nc(COc4ccc(-n5cnnn5)cc4)cs3)CC2)nc1 [camsylate salt, 5-ethyl-2-{4-[4-(4-tetrazol-1-yl-phenoxymethyl)-thiazol-2-yl]-piperidin-1-yl}-pyrimidine], the “Appearance of the material” value [1] is reported as “remained a free flowing powder”.

With CCc1cnc(N2CCC(c3nc(COc4ccc(-n5cnnn5)cc4)cs3)CC2)nc1 [esylate salt, 5-ethyl-2-{4-[4-(4-tetrazol-1-yl-phenoxymethyl)-thiazol-2-yl]-piperidin-1-yl}-pyrimidine] the “Appearance of the material” value [1] was “remained a free flowing powder”.

With CCc1cnc(N2CCC(c3nc(COc4ccc(-n5cnnn5)cc4)cs3)CC2)nc1 [sulfate salt, 5-ethyl-2-{4-[4-(4-tetrazol-1-yl-phenoxymethyl)-thiazol-2-yl]-piperidin-1-yl}-pyrimidine] the “Appearance of the material” value [1] was “turned tacky”.
